Tests used:
Spc1 kinase = molecular target: T1, Spc1 kinase (Schizosaccharomyces pombe, UniProt Q09892); assay: Spc1 kinase activity, myelin basic protein substrate ([γ-32P]ATP, SDS-PAGE, FIG. 3); format: biochemical; settings: purified GST-Spc1, myelin basic protein as substrate
T1 construct: The genes wis1 and spc1 were cloned into the pRep1 vector containing nmt1 promoter; made in house; host or cells: Schizosaccharomyces pombe KGY246 (pRep1 vector, nmt1 promoter)
T1 sequence (Q09892 1-349): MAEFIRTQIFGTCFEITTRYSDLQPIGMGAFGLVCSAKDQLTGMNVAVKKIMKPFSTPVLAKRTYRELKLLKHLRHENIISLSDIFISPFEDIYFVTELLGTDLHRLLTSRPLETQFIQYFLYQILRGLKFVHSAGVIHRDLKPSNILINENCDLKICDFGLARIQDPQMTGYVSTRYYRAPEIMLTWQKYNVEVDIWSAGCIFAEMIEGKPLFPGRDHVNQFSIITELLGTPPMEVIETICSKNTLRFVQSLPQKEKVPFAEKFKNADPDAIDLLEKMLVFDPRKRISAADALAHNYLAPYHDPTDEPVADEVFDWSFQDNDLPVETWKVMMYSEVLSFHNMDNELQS
Protocol: The genes wis1 and spc1 were cloned into the pRep1 vector containing nmt1 promoter of which expression was inhibited by thiamin in the medium and able to tag GST. The KGY246 cells, wild type Schizosaccharomyces pombe cells were transformed with this plasmid. The expression of Wis1 and Spc1 kinase tagged with GST was induced by the cultivation of the transformed cells in MM^AU medium containing 0.4 mM thiamin followed by cultivation to exponential phase(5×10^6 cells) for about 20 hours in 100 mL of MM^AU medium in which thiamin was withdrawn. […]
Before Wis1 and Spc1 kinases purified in example 4 were analyzed, they were pre-incubated in analyzing buffer of kinase (50 mM Tris-Cl pH7.4, 20 mM MgCl2, 5 mM EGTA, 2 mM Na vanadate, 1 mM DTT). […] Therefore, the degree of Wis1 autophosphorylation was also measured.

Wis1 kinase = molecular target: T2, Wis1 kinase (Schizosaccharomyces pombe, UniProt P33886); assay: Wis1 kinase activity and autophosphorylation ([γ-32P]ATP, SDS-PAGE, FIG. 2); format: biochemical; settings: purified GST-Wis1, kinase reaction 30° C. 30 minutes, autophosphorylation also measured
T2 construct: The genes wis1 and spc1 were cloned into the pRep1 vector containing nmt1 promoter; made in house; host or cells: Schizosaccharomyces pombe KGY246 (pRep1 vector, nmt1 promoter)
T2 sequence (P33886 1-605): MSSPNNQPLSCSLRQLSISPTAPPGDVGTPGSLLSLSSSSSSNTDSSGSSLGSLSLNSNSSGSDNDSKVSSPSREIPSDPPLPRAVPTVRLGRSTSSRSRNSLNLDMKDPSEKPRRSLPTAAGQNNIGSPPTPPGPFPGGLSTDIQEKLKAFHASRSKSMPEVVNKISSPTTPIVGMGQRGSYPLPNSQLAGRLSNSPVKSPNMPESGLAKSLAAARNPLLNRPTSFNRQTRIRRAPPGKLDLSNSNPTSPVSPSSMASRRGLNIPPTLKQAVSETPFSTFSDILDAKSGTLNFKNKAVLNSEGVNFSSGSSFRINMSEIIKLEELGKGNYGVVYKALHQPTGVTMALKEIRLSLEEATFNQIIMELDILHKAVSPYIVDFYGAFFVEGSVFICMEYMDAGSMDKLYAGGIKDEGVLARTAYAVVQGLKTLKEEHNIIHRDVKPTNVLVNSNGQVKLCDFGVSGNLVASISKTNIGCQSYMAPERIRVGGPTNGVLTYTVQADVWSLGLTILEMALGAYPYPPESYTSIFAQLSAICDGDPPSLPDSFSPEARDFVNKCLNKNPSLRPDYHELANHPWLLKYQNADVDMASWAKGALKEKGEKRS
Protocol: The genes wis1 and spc1 were cloned into the pRep1 vector containing nmt1 promoter of which expression was inhibited by thiamin in the medium and able to tag GST. The KGY246 cells, wild type Schizosaccharomyces pombe cells were transformed with this plasmid. The expression of Wis1 and Spc1 kinase tagged with GST was induced by the cultivation of the transformed cells in MM^AU medium containing 0.4 mM thiamin followed by cultivation to exponential phase(5×10^6 cells) for about 20 hours in 100 mL of MM^AU medium in which thiamin was withdrawn. After osmotic shock(0.6M KCl) and oxidative stress were given to the cells expressing Wis1 and Spc1 tagged with GST for 25 minutes, cells were recovered at 4° C., washed with ice-cold PBS/NaF(50 mM)/NaN3(1 mM) buffer and HB buffer(25 mM HEPES, pH 7.5, 60 mM β-glycerophosphate, 15 mM EGTA, 0.1 mM Na vanadate, 0.1% triton and hydrolyzed using glass bead and bead beater purchased from Sigma. The supernatant of hydrolyzed cells was incubated with 100 mM NaCl for salting-out to remove unnecessary proteins. After the supernatant was incubated with 0.045 g/ml GST beads for 1.5 hours, proteins not bound to GST beads were removed. Purified Wis1 and Spc1 kinases were separated on 7% SDS-PAGE and the degree of purification was confirmed by western blotting using GST antibody.
Before Wis1 and Spc1 kinases purified in example 4 were analyzed, they were pre-incubated in analyzing buffer of kinase (50 mM Tris-Cl pH7.4, 20 mM MgCl2, 5 mM EGTA, 2 mM Na vanadate, 1 mM DTT). The kinase reaction was performed at 30° C. for 30 minutes in the presence of 1 mg/ml myelin basic protein(MBP), 1 mM ATP and 20 uCi of [γ-^32p]ATP and then terminated by adding SDS sample buffer and heating at 90° C. for 5 minutes. The reaction mixtures were separated on SDS-polyacrylamide gel electrophoresis. After fixation with 10% acetic acid: 10% methanol and drying, the gel was exposed on X-ray film. When Wis1 is activated by stimulus, it also activates autophosphorylation. Therefore, the degree of Wis1 autophosphorylation was also measured.

KGY246 (wild type) = assay: Growth (cell number) of wild type strain KGY246; format: cell-based, Schizosaccharomyces pombe
Protocol: To investigate the effect of protoberberine derivatives on the growth of cells, the cells of each strain were cultured in rich medium YE^AU to exponential phase(5×10^7 cells/mL). These cells were transferred to YE^AU medium and cultured for 12 hours. Then cell number was measured every 3 hours.

Row | SMILES | inhibition of Spc1 kinase activity (in words) (Spc1 kinase) | inhibition of Wis1 kinase activity (in words) (Wis1 kinase) | cell number (KGY246 (wild type); Table 2, KGY246, time 14) | cell number (KGY246 (wild type); Table 2, KGY246, time 17) | cell number (KGY246 (wild type); Table 2, KGY246, time 20) | cell number (KGY246 (wild type); Table 2, KGY246, time 23)
1 | CCCOc1cc2c(cc1OCCC)-c1cc3ccc(OCCC)c(OCCC)c3c[n+]1CC2.[I-] [2,3,9,10-tetrapropoxyprotoberberine iodide] | directly inhibited | – | – | – | – | –
2 | COc1ccc2c(Cc3ccc(C(C)(C)C)cc3)c3[n+](cc2c1OC)CCc1cc2c(cc1-3)OCO2.[Cl-] [13-(4-t-butylbenzyl)berberine chloride] | – | directly inhibited | – | – | – | –
3 | COc1ccc2c(Cc3ccc(O[Si](C)(C)C(C)(C)C)cc3)c3[n+](cc2c1OC)CCc1cc2c(cc1-3)OCO2.[Cl-] [13-(4-(t-butyldimethylsilyloxy)benzyl)berberine chloride] | – | directly inhibited | 20 | 19 | 22 | 16

From patent US20040029910A1, “Protoberberine derivatives which inhibit activity of the mitogen-activated protein kinase” (priority 2000, published 2004)
